This passage reports IC50 and inhibition results from ChEMBL document CHEMBL1149252, “Synthesis and structure-activity relationships of 4-alkynyloxy phenyl sulfanyl, sulfinyl, and sulfonyl alkyl hydroxamates as tumor necrosis factor-alpha converting enzyme and matrix metalloproteinase inhibitors” (J Med Chem, 2004).

For assay [1], the target named is Matrix metalloproteinase-9 (Homo sapiens, UniProt P14780).
The next assay has as its target Interstitial collagenase (Homo sapiens, UniProt P03956).
Assay [2] has as its target Disintegrin and metalloproteinase domain-containing protein 17 (Homo sapiens, UniProt P78536).
A further assay relates to THP-1. As to the kind of experiment: Inhibition of LPS-stimulated TNFalpha production in human THP1 cells at 3 uM by ELISA. It counts as functional.
For the next assay, the target named is Collagenase 3 (Homo sapiens, UniProt P45452).

Bounds are passed on as bounds.

Sequence of Interstitial collagenase (P03956 whole entry, the tested form may be a part): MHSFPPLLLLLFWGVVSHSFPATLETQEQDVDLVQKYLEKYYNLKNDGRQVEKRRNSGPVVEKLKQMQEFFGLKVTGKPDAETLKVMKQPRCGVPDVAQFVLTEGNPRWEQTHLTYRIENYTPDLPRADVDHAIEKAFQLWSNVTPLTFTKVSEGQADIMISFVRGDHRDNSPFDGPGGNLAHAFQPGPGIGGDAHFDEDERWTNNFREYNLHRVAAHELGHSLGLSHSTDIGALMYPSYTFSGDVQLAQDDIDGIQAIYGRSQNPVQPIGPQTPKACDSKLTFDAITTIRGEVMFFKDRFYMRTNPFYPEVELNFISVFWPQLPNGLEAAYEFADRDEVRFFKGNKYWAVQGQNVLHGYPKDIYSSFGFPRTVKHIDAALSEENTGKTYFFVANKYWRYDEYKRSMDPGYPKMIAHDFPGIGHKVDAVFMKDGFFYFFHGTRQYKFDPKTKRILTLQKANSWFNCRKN
Sequence of Matrix metalloproteinase-9 (P14780 whole entry): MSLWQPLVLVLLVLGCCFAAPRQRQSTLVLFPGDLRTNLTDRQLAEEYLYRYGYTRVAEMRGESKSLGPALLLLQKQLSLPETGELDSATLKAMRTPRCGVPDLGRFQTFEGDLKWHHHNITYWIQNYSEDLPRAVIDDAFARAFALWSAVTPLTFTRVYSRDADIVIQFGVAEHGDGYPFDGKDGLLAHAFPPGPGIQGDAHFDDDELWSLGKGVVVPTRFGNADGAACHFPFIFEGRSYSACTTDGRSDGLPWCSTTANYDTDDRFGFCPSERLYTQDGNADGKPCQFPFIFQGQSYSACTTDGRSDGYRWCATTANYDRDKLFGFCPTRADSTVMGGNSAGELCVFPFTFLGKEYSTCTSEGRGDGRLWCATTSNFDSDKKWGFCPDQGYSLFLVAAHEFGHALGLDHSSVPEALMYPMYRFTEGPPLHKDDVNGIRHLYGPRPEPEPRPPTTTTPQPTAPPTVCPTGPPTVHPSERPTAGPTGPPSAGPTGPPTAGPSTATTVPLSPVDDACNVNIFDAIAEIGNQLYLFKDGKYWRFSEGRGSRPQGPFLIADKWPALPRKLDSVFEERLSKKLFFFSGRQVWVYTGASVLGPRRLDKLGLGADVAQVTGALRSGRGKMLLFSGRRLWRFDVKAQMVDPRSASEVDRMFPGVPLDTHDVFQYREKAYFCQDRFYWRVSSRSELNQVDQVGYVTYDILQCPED
Sequence of Disintegrin and metalloproteinase domain-containing protein 17 (P78536 whole entry, the tested form may be a part): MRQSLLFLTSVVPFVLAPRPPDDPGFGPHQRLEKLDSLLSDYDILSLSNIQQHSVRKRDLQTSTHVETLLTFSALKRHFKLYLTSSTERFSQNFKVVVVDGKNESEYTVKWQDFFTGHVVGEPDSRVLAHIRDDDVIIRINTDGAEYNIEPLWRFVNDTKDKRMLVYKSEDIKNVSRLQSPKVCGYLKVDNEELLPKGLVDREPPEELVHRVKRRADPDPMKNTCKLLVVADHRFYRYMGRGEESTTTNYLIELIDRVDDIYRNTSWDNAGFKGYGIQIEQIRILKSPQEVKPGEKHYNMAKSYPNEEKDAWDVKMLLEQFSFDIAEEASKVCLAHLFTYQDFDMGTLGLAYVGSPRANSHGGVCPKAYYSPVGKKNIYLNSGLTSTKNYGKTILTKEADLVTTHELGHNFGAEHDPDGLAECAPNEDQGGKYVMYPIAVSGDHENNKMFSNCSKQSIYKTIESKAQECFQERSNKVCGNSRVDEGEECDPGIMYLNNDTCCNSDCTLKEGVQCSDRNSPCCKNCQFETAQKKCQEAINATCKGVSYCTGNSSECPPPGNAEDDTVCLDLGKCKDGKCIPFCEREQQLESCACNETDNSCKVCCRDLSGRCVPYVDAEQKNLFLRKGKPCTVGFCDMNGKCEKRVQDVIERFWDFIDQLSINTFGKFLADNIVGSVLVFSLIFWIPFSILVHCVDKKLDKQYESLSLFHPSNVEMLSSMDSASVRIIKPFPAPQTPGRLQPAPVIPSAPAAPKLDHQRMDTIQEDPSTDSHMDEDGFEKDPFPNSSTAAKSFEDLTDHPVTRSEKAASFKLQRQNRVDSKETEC

What is called IC50 is the concentration at which inhibition is half-maximal. What is called inhibition is the relative decrease from the control value, in per cent. As to `CC#CCOc1ccc(S(=O)(=O)C(C(=O)NO)C2CCN(C(=O)c3ccccc3)CC2)cc1` (configuration not stated), the IC50 in assay [1] is greater than 10 µM; on Interstitial collagenase it was greater than 10 µM; in assay [2], 0.233 µM; on Collagenase 3, greater than 10 µM. The same compound yielded an inhibition at 3 µM in the assay with THP-1 of 28%.

As to `CC#CCOc1ccc(S(=O)(=O)C(C(=O)NO)C2CCCCC2)cc1` (configuration not stated), the IC50 (in assay [1]; at Interstitial collagenase) was greater than 10 µM throughout.

In the case of `CC#CCOc1ccc(S(=O)(=O)C(C(=O)NO)C2CCOCC2)cc1` (configuration not stated), the IC50 (in assay [1]; against Interstitial collagenase; against Collagenase 3) was greater than 10 µM in each case.

`CC#CCOc1ccc([S@+]([O-])[C@H](CCCCCC)C(=O)NO)cc1`: the IC50 in assay [1] amounted to 1 µM; on Interstitial collagenase, 3.2 µM; in assay [2], 0.012 µM; against Collagenase 3 it was 0.15 µM. Further, 3 µM produced 35% inhibition in the assay with THP-1.

As to `CC#CCOc1ccc(SC(C(=O)NO)C(C)C)cc1` (configuration not stated), the IC50 (in assay [1]; at Interstitial collagenase; against Collagenase 3) was greater than 10 µM in each case. This compound also gave an inhibition at 3 µM in the assay with THP-1 of 13%.

As for `CCCCCC[C@@H](C(=O)NO)[S@+]([O-])c1ccc(OC)cc1` (relative stereo), the IC50 is 0.186 µM in assay [1], 1.15 µM against Interstitial collagenase, 0.03 µM in assay [2] and 0.072 µM on Collagenase 3.

Turning to `CC#CCOc1ccc(S(=O)(=O)C(C(=O)NO)c2ccccc2)cc1` (configuration not stated), the half-inhibitory concentration (IC50) in assay [1] was found to be 0.124 µM; on Interstitial collagenase, 4.57 µM; in assay [2] it was 0.094 µM; at Collagenase 3, 0.068 µM. Moreover, 3 µM produced 68% inhibition in the assay on THP-1.

With `CC#CCOc1ccc([S@@](=O)[C@H](C(=O)NO)c2ccccc2)cc1`, the IC50 in assay [1] was greater than 10 µM; on Interstitial collagenase, greater than 10 µM; in assay [2], 0.074 µM; at Collagenase 3 it was greater than 10 µM. Moreover, the inhibition at 3 µM with THP-1 is 4%.

Regarding `CC#CCOc1ccc(S(=O)(=O)C(C(=O)NO)C2CCSCC2)cc1` (configuration not stated), the IC50 is greater than 10 µM in assay [1], greater than 10 µM against Interstitial collagenase, 0.113 µM in assay [2] and greater than 10 µM against Collagenase 3. This compound also registered an inhibition at 3 µM with THP-1 of 15%.

As for `CC#CCOc1ccc(S(=O)(=O)C2(C(=O)NO)CCN(Cc3ccccc3)CC2)cc1`, on Interstitial collagenase, inhibition was half-maximal at 2.64 µM (IC50).

Turning to `CC#CCOc1ccc(S(=O)(=O)C(C(=O)NO)C2CCN(C(=O)C3CC3)CC2)cc1` (configuration not stated), the IC50 in assay [1] is greater than 10 µM; against Interstitial collagenase, greater than 10 µM; in assay [2], 0.054 µM; against Collagenase 3 it was greater than 10 µM. The same compound returned an inhibition at 3 µM in the assay on THP-1 of 71%.

For the compound `CC#CCOc1ccc(SC(C(=O)NO)C2CCCCC2)cc1` (configuration not stated), the IC50 is 3 µM in assay [1], greater than 10 µM against Interstitial collagenase and 2 µM against Collagenase 3. Further, testing at 3 µM with THP-1 gave an inhibition of 5%.

For the compound `CC#CCOc1ccc(S(=O)(=O)C(C(=O)NO)C2CCN(C(C)=O)CC2)cc1` (configuration not stated), the half-maximal inhibitory concentration (IC50) is greater than 10 µM in assay [1], greater than 10 µM against Interstitial collagenase, 0.119 µM in assay [2] and greater than 10 µM at Collagenase 3. In the assay with THP-1, this compound registered an inhibition at 3 µM of 31%.

Regarding `CC#CCOc1ccc([S@@+]([O-])[C@@H](CCCCCC)C(=O)NO)cc1`, the IC50 was determined as 1.5 µM in assay [1], 3 µM on Interstitial collagenase, 0.004 µM in assay [2] and 0.9 µM against Collagenase 3. The inhibition at 3 µM in the assay on THP-1 came to 67%.

As to `CC#CCOc1ccc([S@@](=O)[C@H](C(=O)NO)c2ccc(OC)cc2)cc1`, the IC50 in assay [1] was greater than 10 µM; against Interstitial collagenase, greater than 10 µM; in assay [2], 0.048 µM; on Collagenase 3, greater than 10 µM. Moreover, the inhibition at 3 µM in the assay with THP-1 was determined as 12%.

`CC#CCOc1ccc(S(=O)(=O)C(CCCCCC)C(=O)NO)cc1` (configuration not stated): the IC50 is 2.5 µM in assay [1], greater than 10 µM at Interstitial collagenase, 0.075 µM in assay [2] and 0.5 µM against Collagenase 3. Further, testing at 3 µM with THP-1 gave an inhibition of 6%.

Consider `CC#CCOc1ccc(S(=O)(=O)C(C(=O)NO)C2CC[S+]([O-])CC2)cc1` (configuration not stated), for which the 50% inhibitory concentration (IC50) is greater than 10 µM in assay [1], greater than 10 µM on Interstitial collagenase, 0.039 µM in assay [2] and greater than 10 µM against Collagenase 3. In addition, the inhibition at 3 µM in the assay on THP-1 was 14%.

On to `CC#CCOc1ccc(S(=O)(=O)C(C(=O)NO)C(C)C)cc1` (configuration not stated), for which the IC50 in assay [1] was determined as 1.26 µM; against Interstitial collagenase, 5.14 µM; against Collagenase 3, 0.107 µM.

For `C#CCOc1ccc(S(=O)(=O)C2(C(=O)NO)CCN(Cc3ccccc3)CC2)cc1`, the IC50 worked out at 0.018 µM in assay [1], 0.096 µM on Interstitial collagenase, 0.069 µM in assay [2] and 0.007 µM at Collagenase 3. At 3 µM the inhibition with THP-1 was 0%.

Regarding `CC#CCOc1ccc([S+]([O-])C(C(=O)NO)c2ccccc2)cc1` (single isomer, unassigned), the IC50 (in assay [1]; on Interstitial collagenase; against Collagenase 3) was greater than 10 µM in each case. Further, in the assay on THP-1, the inhibition at 3 µM is 74%.

Consider `CCCCOc1ccc(S(=O)(=O)C2(C(=O)NO)CCN(Cc3ccc(Br)cc3)CC2)cc1`, for which the IC50 was 0.01 µM in assay [1], 3.96 µM on Interstitial collagenase, 0.072 µM in assay [2] and 0.005 µM against Collagenase 3. In the assay on THP-1, this compound showed an inhibition at 3 µM of 6%.

As for `CC#CCOc1ccc([S+]([O-])C(C(=O)NO)c2ccc(OC)cc2)cc1` (single isomer, unassigned), the IC50 in assay [1] was greater than 10 µM; on Interstitial collagenase it was greater than 10 µM; in assay [2], 0.017 µM; at Collagenase 3, greater than 10 µM.

In turn, `CC#CCOc1ccc(SC(CCCCCC)C(=O)NO)cc1` (configuration not stated) registered an IC50 on Interstitial collagenase greater than 10 µM. The inhibition at 3 µM in the assay with THP-1 was determined as 5%.

Compound `COc1ccc(S(=O)(=O)C2(C(=O)NO)CCN(Cc3ccc(Br)cc3)CC2)cc1` returned an inhibition at 3 µM in the assay on THP-1 of 0%.

As for `CC#CCOc1ccc([S@@+]([O-])[C@H](C(=O)NO)C(C)C)cc1`, the values for the IC50 (in assay [1]; at Interstitial collagenase) were 0.399 µM and 6.48 µM, respectively.

Regarding `CC#CCOc1ccc(S(=O)(=O)C(C(=O)NO)c2ccc(OC)cc2)cc1` (configuration not stated), the IC50 in assay [1] is greater than 10 µM; against Interstitial collagenase, greater than 10 µM; in assay [2] it was 0.201 µM; against Collagenase 3, 3.69 µM.

Regarding `CC#CCOc1ccc(S(=O)(=O)C(C(=O)NO)C2CCNCC2)cc1` (configuration not stated), the half-inhibitory concentration (IC50) (in assay [1]; against Interstitial collagenase; on Collagenase 3) was greater than 10 µM throughout.

On to `CC#CCOc1ccc(S(=O)(=O)C2(C(=O)NO)CCN(Cc3ccc(Br)cc3)CC2)cc1`, for which the IC50 on Interstitial collagenase was found to be 3.37 µM.

For the compound `CCCCCC[C@@H](C(=O)NO)[S@@+]([O-])c1ccc(OC)cc1` (relative stereo), the IC50 came to 0.148 µM in assay [1], 1.51 µM at Interstitial collagenase, 0.375 µM in assay [2] and 0.018 µM at Collagenase 3.

Take `CC#CCOc1ccc(SC(C(=O)NO)c2ccc(OC)cc2)cc1` (configuration not stated): the IC50 (in assay [1]; against Interstitial collagenase; on Collagenase 3) was greater than 10 µM in each case. Besides, the inhibition at 3 µM with THP-1 stood at 3%.

Regarding `CC#CCOc1ccc(SC(C(=O)NO)c2ccccc2)cc1` (configuration not stated), the IC50 (in assay [1]; on Interstitial collagenase; against Collagenase 3) was greater than 10 µM throughout. The inhibition at 3 µM with THP-1 stood at 14%.

In the case of `C#CCOc1ccc(S(=O)(=O)C2(C(=O)NO)CCN(Cc3ccc(Br)cc3)CC2)cc1`, the IC50 in assay [1] amounted to 0.006 µM; against Collagenase 3, 0.003 µM. In the assay on THP-1, this compound displayed an inhibition at 3 µM of 7%.
